Converted amounts (≈) assume the structure as drawn.
Conditions: buffer; pH 7.4; 200.0 µM

Row | Compound | solubility kinetic [µg/mL]
1 | O=C(CN1CCN(Cc2ccccc2)CC1)NCCc1ccccc1 | 47.3 (≈ 140 µM)
2 | c1ccc(CNCCc2c[nH]c3ccccc23)cc1 | 37.2 (≈ 149 µM)
3 | NS(=O)(=O)c1ccc(CCNC(=O)Cc2cccs2)cc1 | 31.8 (≈ 98 µM)
4 | CC(C)c1cccc(C(C)C)c1NC(=O)c1ccccc1 | 1.7 (≈ 6.04 µM)
5 | CC(=O)c1cccc(NC(=S)N2CCc3ccccc32)c1 | 3.1 (≈ 10.5 µM)
6 | Cc1c(C(=O)N(C)Cc2ccc(OC(F)F)cc2)oc2ccccc12 | 6.5 (≈ 18.8 µM)
7 | CCOC(=O)c1c(/N=C/C2=C(O)CCCC2=O)sc2c1CCCC2 | 3.6 (≈ 10.4 µM)
8 | O=C(CSc1ccc2ccccc2n1)c1ccccc1 | 1.5 (≈ 5.37 µM)
9 | CN(CC(=O)Nc1cccc(F)c1)C(=O)CC1CCCCC1 | 21.1 (≈ 68.9 µM)
10 | O=C(CCC(=O)Nc1ccc(F)cc1)N/N=C/c1cccnc1 | > 47.1
11 | Cc1ccsc1C(=O)N1CCN(C(=O)c2ccco2)CC1 | > 45.7
12 | Cc1cccc(Nc2nc(N)c([N+](=O)[O-])c(NCc3ccccc3)n2)c1 | 0.7 (≈ 2 µM)
13 | COc1ccc(C(=O)OCC(=O)Nc2sccc2C(N)=O)cc1OC | 1 (≈ 2.74 µM)
14 | CCc1ccc(NC2=NCCCS2)cc1 | > 33
15 | CN1CCN(c2ccc(Cl)cc2NC(=O)/C=C/c2cccc(F)c2)CC1 | 34.4 (≈ 92 µM)
16 | COc1cccc(OCCn2cc(C(C)=O)c3ccccc32)c1 | 10.9 (≈ 35.2 µM)
17 | COc1cccc(NC(=O)CN2C(=O)NC(Cc3c[nH]c4ccccc34)C2=O)c1 (stereo not drawn) | 22 (≈ 56.1 µM)
18 | CN(c1ccccc1)c1nc(N)c([N+](=O)[O-])c(NCc2ccccc2)n1 | < 0.1
19 | Cc1nnc(SCC(=O)NC(C)(C)C)n1NCc1cccc(Br)c1 | > 61.9
20 | COc1ccc(NC(=O)c2cccnc2N2CCOCC2)cc1 | > 47
21 | Cc1ccc(SCCOCCN2CC(C)OC(C)C2)cc1.Cl (stereo not drawn) | 42.5
22 | COC(=O)c1nn(-c2ccc(OC)cc2)ccc1=O | > 39
23 | CN1CCCN(C(=O)c2ccc(Br)s2)CC1 | > 45.5
24 | COc1ccc(C)cc1NC(=O)NCCCCc1ccccc1 | 0.4 (≈ 1.28 µM)

Row | Compound | solubility kinetic [µg/mL]
25 | CN(C1CCCCC1)S(=O)(=O)c1ccc(=S)[nH]c1 | 22.8 (≈ 79.6 µM)
26 | Cc1cc(NC(=O)C2CC2)ccc1NC(=O)c1cccs1 | 13.1 (≈ 43.6 µM)
27 | CCCCCOc1ccccc1C(=O)NCCCCCC(=O)O | > 48.2
28 | Cc1cc(C(=O)OCC(=O)NCc2cccs2)ccc1[N+](=O)[O-] | 4.8 (≈ 14.4 µM)
29 | Cc1ccc(NC(=S)N2CCCC(c3nc4ccccc4[nH]3)C2)cc1 (stereo not drawn) | 2.3 (≈ 6.56 µM)
30 | COc1ccc(OC)c(N(CC(=O)N2CCOCC2)S(C)(=O)=O)c1 | > 53.8
31 | Cc1noc(C)c1S(=O)(=O)NCc1cccc(Cl)c1 | > 45.1
32 | CN(C)c1cc(-c2ccc(Cl)cc2)oc(=O)c1Cl | 1.7 (≈ 5.98 µM)
33 | O=[N+]([O-])c1ccc(N2CCc3ccccc3C2)nc1 | 7.6 (≈ 29.8 µM)
34 | Cc1nc(N2CCN(c3ccccc3)CC2)[nH]c(=O)c1C | 39.5 (≈ 139 µM)
35 | CCNC(=O)c1cnn(-c2ccccc2)c1-c1ccccc1 | > 43.7
36 | Cc1cc(C)n2c(SCC(=O)Nc3cc(S(=O)(=O)N(C)C)ccc3C)nnc2n1 | > 65.2
37 | Cc1cc(C(=O)COC(=O)c2ccc(F)cc2)c(C)n1C | 1.2 (≈ 4.15 µM)
38 | COCCNC(=O)c1cc2cc3ccc(OC)cc3nc2o1 | 42.1 (≈ 140 µM)
39 | Cc1ccc(C)c(Nc2ccc3nonc3c2[N+](=O)[O-])c1 | 2 (≈ 7.04 µM)
40 | O=C1CCc2cc(S(=O)(=O)Nc3ccccc3)ccc2N1 | > 45.4
41 | CC(O)CNc1ccc([N+](=O)[O-])cc1S(=O)(=O)N1CCOCC1 (stereo not drawn) | > 51.8
42 | CC(=O)c1c(C)[nH]c(C(=O)OCC(=O)N(Cc2ccccc2)C(C)(C)C)c1C | 12 (≈ 31.2 µM)
43 | Cc1cc(=O)oc2cc(OCC(=O)Nc3nccs3)ccc12 | 4.1 (≈ 13 µM)
44 | O=C(NCc1cccnc1)Nc1ccc(Cl)cc1 | > 39.3
45 | CCOC(=O)C(=O)c1c(-c2ccccc2)nc2ccccn12 | 33.7 (≈ 115 µM)
46 | COc1ccc(C(=O)Nc2ccncc2)cc1[N+](=O)[O-] | 36 (≈ 132 µM)
47 | O=C(O)C1CCC(=O)N(C2CCCCC2)C1c1ccccc1Cl (stereo not drawn) | > 50.4
48 | CCC(C)NC(=O)C1=CCN(S(=O)(=O)c2ccc(C)cc2)CC1 (stereo not drawn) | 43.5 (≈ 129 µM)

Row | Compound | solubility kinetic [µg/mL]
49 | O=C(CCn1c(=O)oc2ccccc21)NCCC1=CCCCC1 | > 47.2
50 | CCc1nc(=O)c(-c2ccccc2)c(C)n1-c1ccccc1 | > 43.6
51 | O=C(c1ccc([N+](=O)[O-])cc1)N1CCN(C(=O)c2ccco2)CC1 | > 49.4
52 | O=C(NCC1CCCO1)c1ccc(NC(=O)c2ccc(Br)cc2)cc1 (stereo not drawn) | 1.2 (≈ 2.98 µM)
53 | CCOC(=O)c1cc2c(=O)c3cc(C)ccc3oc2nc1C | < 0.6
54 | COc1ccc(C(=O)CCC(C)(C)[N+](=O)[O-])cc1 | 31.8 (≈ 127 µM)
55 | CCOc1ccc(C(=O)N(CN2CCCC2=O)c2cccc(Cl)c2)cc1 | > 55.9
56 | CC(=O)Nc1ccc2sc(NC(=O)CN3CCOCC3)nc2c1 | > 50.2
57 | CCOc1ccc(C(=O)NCC(=O)N2CCC(C)CC2)cc1OCC | > 52.3
58 | O=C(CCCO)NC1Cc2ccccc2C1 | 31.7 (≈ 145 µM)
59 | CN1C(=O)NC(c2ccc(Cl)cc2)C2=C1CC(C)(C)CC2=O (stereo not drawn) | > 47.8
60 | O=C(CCc1ccc(O)c(O)c1)N/N=C/c1ccc2c(c1)OCO2 | > 49.2
61 | COc1ccc(CN=C(C#N)C2=C(O)c3ccccc3C2=O)cc1 | 0.8 (≈ 2.51 µM)
62 | O=C(NC1CCCC1)c1cc(-c2ccccc2)nc2ccccc12 | 1.4 (≈ 4.42 µM)
63 | Cn1c(N)c(C(=O)COC(=O)c2ccccc2C(F)(F)F)c(=O)n(C)c1=O | 6.3 (≈ 16.4 µM)
64 | CCOP(=O)(OCC)C(Nc1ccc(C(=O)O)cc1)c1ccccc1 (stereo not drawn) | > 54.5
65 | Cc1onc(-c2ccccc2)c1-c1csc(COc2ccccc2)n1 | 2.2 (≈ 6.31 µM)
66 | Cc1noc(C)c1C(=O)OCC(=O)NC1CCCCC1C (stereo not drawn) | > 44.2
67 | COc1nc(C)nc(C)c1Oc1ccc(Cl)cc1Cl | 1.5 (≈ 5.01 µM)
68 | CC(Sc1nnc(N)s1)C(=O)Nc1nccs1 (stereo not drawn) | > 43.1
69 | CCCCCCc1ccc(OC(=O)c2ccncc2)cc1 | 0.7 (≈ 2.47 µM)
70 | Cc1ccc(-c2nsc(SCC(=O)NCC3CCCO3)n2)cc1 (stereo not drawn) | > 52.4
71 | O=C(c1ccc([N+](=O)[O-])cc1)N1CCN=C1SCc1ccccc1 | 17.4 (≈ 51 µM)
72 | CCN(C(=O)COC(=O)c1ccc(O)cc1)c1cccc2ccccc12 | 24.6 (≈ 70.4 µM)

Row | Compound | solubility kinetic [µg/mL]
73 | Cc1cc(F)ccc1NS(=O)(=O)c1cccc2nsnc12 | 44.2 (≈ 137 µM)
74 | Cc1noc(C)c1C(=O)NC(Cc1c[nH]c2ccccc12)C(=O)O (stereo not drawn) | > 49.1
75 | COC(=O)c1sccc1NC(=O)CNC(=O)c1ccccc1 | > 47.8
76 | N#CCOC(=O)[C@H](Cc1ccccc1)N1C(=O)c2ccccc2C1=O | 47.3 (≈ 141 µM)
77 | O=C(Cc1ccccc1)Nc1ccc(NC(=O)c2ccco2)cc1 | 4 (≈ 12.5 µM)
78 | O=C1c2ccccc2C(=O)N1c1ccc(Cc2ccncc2)cc1 | 44.9 (≈ 143 µM)
79 | O=C(Nc1ccccc1)C1CCOC1=O (stereo not drawn) | 26.3 (≈ 128 µM)
80 | O=C(CN1C(=O)NC2NC(=O)NC21)N/N=C/c1ccc(F)cc1 (stereo not drawn) | > 48
81 | Cc1ccc(OCCC(=O)OC(C)C(=O)NC2CC2)cc1 (stereo not drawn) | > 43.7
82 | Cc1cc(C)cc(OCC(=O)O/N=C(\N)c2ccccc2Cl)c1 | 13.3 (≈ 40 µM)
83 | CCOc1c(Cl)cc(CNCc2ccccn2)cc1OC.Cl | 45.2
84 | Cc1ccc(S(=O)(=O)NCc2cccnc2)cc1 | > 39.3
85 | C=CCN(Cc1nc(-c2ccccc2)no1)C(=O)c1ccc2c(c1)OCO2 | 21.1 (≈ 58.1 µM)
86 | NC(=O)c1ccc(OCC(=O)N2CCNC2=O)cc1 | > 39.5
87 | COP(=O)(OC)C(Nc1ccccc1)c1ccccc1 (stereo not drawn) | > 43.7
88 | NC(=O)c1ccsc1NC(=O)CSc1nnc2ccccn12 | > 50
89 | O=S(=O)(c1ccc(-c2ccon2)s1)N1CCN(c2ccncc2)CC1 | 37.8 (≈ 100 µM)
90 | C#CCN(CC=C)C(=O)c1ccc2nc(C3CCCCC3)oc2c1 | 43.5 (≈ 135 µM)
91 | O=C(COc1ccccc1)OCC(=O)c1c[nH]c2ccccc12 | 8.9 (≈ 28.8 µM)
92 | O=C(Nc1ccccc1C(F)(F)F)c1ccccc1Br | 39.8 (≈ 116 µM)
93 | COc1ccccc1NC(=O)/C(=C/c1cccs1)NC(=O)c1ccco1 | > 55.3
94 | O=C(COC(=O)/C=C/c1ccc(F)cc1)NCc1cccs1 | 8.7 (≈ 27.2 µM)
95 | O=C(O)CCCCNS(=O)(=O)/C=C/c1ccccc1 | > 42.5
96 | O=[N+]([O-])c1ccc(C(O)CSC(=S)N2CCCCC2)cc1 (stereo not drawn) | 2.6 (≈ 7.96 µM)

Row | Compound | solubility kinetic [µg/mL]
97 | CC(C)n1c(N)c(C#N)c2ccc([N+](=O)[O-])cc2c1=O | 1.6 (≈ 5.88 µM)
98 | O=C(NCC1CCCO1)C1CCCN1C(=O)Nc1ccc(Cl)cc1 (stereo not drawn) | > 52.8
99 | COc1cc(OC)nc(Oc2ccccc2/C=N/O)n1 | > 41.3
100 | CC(C)COC(=O)c1ccc(N2C(=O)c3ccccc3C2=O)cc1 | 2.1 (≈ 6.49 µM)
101 | CC(=O)NC(=S)Nc1ccccc1F | > 31.8
102 | Cc1ccc2oc(=O)n(Cc3ccc(OC(C)C)cc3)c2c1 | 1 (≈ 3.36 µM)
103 | COc1ccc2c(c1OC)C(=O)N(c1ccc(O)cc1)C2 | 6.3 (≈ 22.1 µM)
104 | CN(C(=O)CN1C(=O)NC2(CCc3ccccc32)C1=O)C1CCCCC1 (stereo not drawn) | > 53.3
105 | O=C(Nc1ccncc1)c1ccc(N2CCCC2=O)cc1 | > 42.2
106 | Cc1nc(NC(=O)c2ccccc2O)sc1C | 10.2 (≈ 41.1 µM)
107 | O=C(C1=C(O)C(=O)N(CC2CCCO2)C1c1ccccc1)c1ccco1 (stereo not drawn) | 41.8 (≈ 118 µM)
108 | Cc1noc(C)c1CSc1ccccc1C(=O)OC(C)C(N)=O (stereo not drawn) | 11.5 (≈ 34.4 µM)
109 | COc1cc([N+](=O)[O-])ccc1NC(=O)NCc1ccco1 | 13.8 (≈ 47.4 µM)
110 | O=C(c1cc2ccccc2o1)N1CCN(c2ccccn2)CC1 | 11.4 (≈ 37.1 µM)
111 | Cc1ccnc(NC(=O)CCC(=O)c2cc(C)sc2C)c1 | 3.7 (≈ 12.2 µM)
112 | CCOc1ccccc1C(=O)Nc1cc(C)ccc1NC(=O)c1ccco1 | 43.4 (≈ 119 µM)
113 | COc1ccccc1CCNC(=O)Cn1c(=O)oc2ccccc21 | > 49
114 | O=S(=O)(NCCc1ccc(Cl)cc1)c1cccs1 | > 45.3
115 | Cc1cccc(NC(=O)CSc2nc3ccccc3c(=O)n2CC2CCCO2)c1 (stereo not drawn) | 4.2 (≈ 10.3 µM)
116 | N#Cc1ccccc1OCC(=O)Nc1ccccc1C(=O)NC1CC1 | 48.3 (≈ 144 µM)
117 | CCOc1cccc2sc(=NC(=O)c3ccco3)n(CC(=O)OC)c12 | 2 (≈ 5.55 µM)
118 | COc1ccc(Nc2nc(NCc3ccco3)nc(N)c2[N+](=O)[O-])cc1 | 0.2 (≈ 0.561 µM)

Reference: PubChem BioAssay AID1996
